# Experimental data from ChEMBL document CHEMBL5236661, “A new selective inhibitor for IMP-1 metallo-β-lactamase, 3Z,5E-octa-3,5-diene-1,3,4-tricarboxylic acid-3,4-anhydride” (Bioorg Med Chem, 2023).
# Calls of active or inactive are those of the source. The rule behind the calls is not given here.
# What was measured:
# Escherichia coli [1] = assay: Antibacterial activity against Escherichia coli KB366 expressing IMP-1 assessed as inhibition of bacterial growth at 0.3 ug in presence of meropenem incubated overnight by paper disk method; assay type: functional; settings: read-out: IZ
# Pseudomonas aeruginosa [2] = assay: Antibacterial activity against Pseudomonas aeruginosa KB367 expressing IMP-1 assessed as inhibition of bacterial growth at 10 ug in presence of meropenem incubated overnight by paper disk method; assay type: functional; settings: read-out: IZ
# Escherichia coli [3] = assay: Antibacterial activity against Escherichia coli KB366 expressing IMP-1 assessed as inhibition of bacterial growth at 30 ug in presence of meropenem incubated overnight by paper disk method; assay type: functional; settings: read-out: IZ
# Escherichia coli [4] = assay: Antibacterial activity against Escherichia coli KB366 expressing IMP-1 assessed as inhibition of bacterial growth at 100 ug in absence of meropenem incubated overnight by paper disk method; assay type: functional, organism-based; settings: dose 100.0 µg
# Escherichia coli [5] = assay: Antibacterial activity against Escherichia coli KB366 expressing IMP-1 assessed as inhibition of bacterial growth at 10 ug in absence of meropenem incubated overnight by paper disk method; assay type: functional, organism-based; settings: dose 10.0 µg
# Pseudomonas aeruginosa [6] = assay: Antibacterial activity against Pseudomonas aeruginosa KB367 expressing IMP-1 assessed as inhibition of bacterial growth at 100 ug in presence of meropenem incubated overnight by paper disk method; assay type: functional; settings: read-out: IZ
# [7] = Inhibition of bacterial Metallo-beta-lactamase IMP-1 using nitrocefin as substrate pre-incubated for 15 mins followed by substrate addition by microplate reader; design: species or system Bacteria
# Pseudomonas aeruginosa [8] = assay: Antibacterial activity against Pseudomonas aeruginosa KB367 expressing IMP-1 assessed as inhibition of bacterial growth at 3 ug in absence of meropenem incubated overnight by paper disk method; assay type: functional, organism-based; settings: dose 3.0 µg
# Pseudomonas aeruginosa [9] = assay: Antibacterial activity against Pseudomonas aeruginosa KB367 expressing IMP-1 assessed as inhibition of bacterial growth at 30 ug in presence of meropenem incubated overnight by paper disk method; assay type: functional; settings: read-out: IZ
# Pseudomonas aeruginosa [10] = assay: Antibacterial activity against Pseudomonas aeruginosa KB367 expressing IMP-1 assessed as inhibition of bacterial growth at 0.3 ug in presence of meropenem incubated overnight by paper disk method; assay type: functional, organism-based; settings: dose 0.3 µg
# Pseudomonas aeruginosa [11] = assay: Antibacterial activity against Pseudomonas aeruginosa KB367 expressing IMP-1 assessed as inhibition of bacterial growth at 1 ug in presence of meropenem incubated overnight by paper disk method; assay type: functional; settings: read-out: IZ
# Pseudomonas aeruginosa [12] = assay: Antibacterial activity against Pseudomonas aeruginosa KB367 expressing IMP-1 assessed as inhibition of bacterial growth at 100 ug in absence of meropenem incubated overnight by paper disk method; assay type: functional, organism-based; settings: dose 100.0 µg
# Pseudomonas aeruginosa [13] = assay: Antibacterial activity against Pseudomonas aeruginosa KB367 expressing IMP-1 assessed as inhibition of bacterial growth at 30 ug in absence of meropenem incubated overnight by paper disk method; assay type: functional, organism-based; settings: dose 30.0 µg
# Escherichia coli [14] = assay: Antibacterial activity against Escherichia coli KB366 expressing IMP-1 assessed as inhibition of bacterial growth at 100 ug in presence of meropenem incubated overnight by paper disk method; assay type: functional; settings: read-out: IZ
# Pseudomonas aeruginosa [15] = assay: Antibacterial activity against Pseudomonas aeruginosa KB367 expressing IMP-1 assessed as inhibition of bacterial growth at 3 ug in presence of meropenem incubated overnight by paper disk method; assay type: functional; settings: read-out: IZ
# Pseudomonas aeruginosa [16] = assay: Antibacterial activity against Pseudomonas aeruginosa KB367 expressing IMP-1 assessed as inhibition of bacterial growth at 0.1 ug in absence of meropenem incubated overnight by paper disk method; assay type: functional, organism-based; settings: dose 0.1 µg
# Pseudomonas aeruginosa [17] = assay: Antibacterial activity against Pseudomonas aeruginosa KB367 expressing IMP-1 assessed as inhibition of bacterial growth at 10 ug in absence of meropenem incubated overnight by paper disk method; assay type: functional, organism-based; settings: dose 10.0 µg
# Escherichia coli [18] = assay: Antibacterial activity against Escherichia coli KB366 expressing IMP-1 assessed as inhibition of bacterial growth at 0.1 ug in absence of meropenem incubated overnight by paper disk method; assay type: functional, organism-based; settings: dose 0.1 µg
# Pseudomonas aeruginosa [19] = assay: Antibacterial activity against Pseudomonas aeruginosa KB367 expressing IMP-1 assessed as inhibition of bacterial growth at 0.03 ug in presence of meropenem incubated overnight by paper disk method; assay type: functional, organism-based; settings: dose 0.03 µg
# Pseudomonas aeruginosa [20] = assay: Antibacterial activity against Pseudomonas aeruginosa KB367 expressing IMP-1 assessed as inhibition of bacterial growth at 0.1 ug in presence of meropenem incubated overnight by paper disk method; assay type: functional, organism-based; settings: dose 0.1 µg
# Pseudomonas aeruginosa [21] = assay: Antibacterial activity against Pseudomonas aeruginosa KB367 expressing IMP-1 assessed as inhibition of bacterial growth at 0.3 ug in absence of meropenem incubated overnight by paper disk method; assay type: functional, organism-based; settings: dose 0.3 µg
# Escherichia coli [22] = assay: Antibacterial activity against Escherichia coli KB366 expressing IMP-1 assessed as inhibition of bacterial growth at 0.01 ug in absence of meropenem incubated overnight by paper disk method; assay type: functional, organism-based; settings: dose 0.01 µg
# Escherichia coli [23] = assay: Antibacterial activity against Escherichia coli KB366 expressing IMP-1 assessed as inhibition of bacterial growth at 3 ug in presence of meropenem incubated overnight by paper disk method; assay type: functional; settings: read-out: IZ
# Pseudomonas aeruginosa [24] = assay: Antibacterial activity against Pseudomonas aeruginosa KB367 expressing IMP-1 assessed as inhibition of bacterial growth at 1 ug in absence of meropenem incubated overnight by paper disk method; assay type: functional, organism-based; settings: dose 1.0 µg
# Pseudomonas aeruginosa [25] = assay: Antibacterial activity against Pseudomonas aeruginosa KB367 expressing IMP-1 assessed as inhibition of bacterial growth at 0.01 ug in presence of meropenem incubated overnight by paper disk method; assay type: functional, organism-based; settings: dose 0.01 µg
# Escherichia coli [26] = assay: Antibacterial activity against Escherichia coli KB366 expressing IMP-1 assessed as inhibition of bacterial growth at 0.3 ug in absence of meropenem incubated overnight by paper disk method; assay type: functional, organism-based; settings: dose 0.3 µg
# Escherichia coli [27] = assay: Antibacterial activity against Escherichia coli KB366 expressing IMP-1 assessed as inhibition of bacterial growth at 1 ug in absence of meropenem incubated overnight by paper disk method; assay type: functional, organism-based; settings: dose 1.0 µg
# Escherichia coli [28] = assay: Antibacterial activity against Escherichia coli KB366 expressing IMP-1 assessed as inhibition of bacterial growth at 30 ug in absence of meropenem incubated overnight by paper disk method; assay type: functional, organism-based; settings: dose 30.0 µg
# Escherichia coli [29] = assay: Antibacterial activity against Escherichia coli KB366 expressing IMP-1 assessed as inhibition of bacterial growth at 0.03 ug in presence of meropenem incubated overnight by paper disk method; assay type: functional; settings: read-out: IZ
# Escherichia coli [30] = assay: Antibacterial activity against Escherichia coli KB366 expressing IMP-1 assessed as inhibition of bacterial growth at 3 ug in absence of meropenem incubated overnight by paper disk method; assay type: functional, organism-based; settings: dose 3.0 µg
# Escherichia coli [31] = assay: Antibacterial activity against Escherichia coli KB366 expressing IMP-1 assessed as inhibition of bacterial growth at 10 ug in presence of meropenem incubated overnight by paper disk method; assay type: functional; settings: read-out: IZ
# Escherichia coli [32] = assay: Antibacterial activity against Escherichia coli KB366 expressing IMP-1 assessed as inhibition of bacterial growth at 0.03 ug in absence of meropenem incubated overnight by paper disk method; assay type: functional, organism-based; settings: dose 0.03 µg
# Escherichia coli [33] = assay: Antibacterial activity against Escherichia coli KB366 expressing IMP-1 assessed as inhibition of bacterial growth at 0.1 ug in presence of meropenem incubated overnight by paper disk method; assay type: functional; settings: read-out: IZ
# Escherichia coli [34] = assay: Antibacterial activity against Escherichia coli KB366 expressing IMP-1 assessed as inhibition of bacterial growth at 0.01 ug in presence of meropenem incubated overnight by paper disk method; assay type: functional; settings: dose 0.01 µg
# Pseudomonas aeruginosa [35] = assay: Antibacterial activity against Pseudomonas aeruginosa KB367 expressing IMP-1 assessed as inhibition of bacterial growth at 0.01 ug in absence of meropenem incubated overnight by paper disk method; assay type: functional, organism-based; settings: dose 0.01 µg
# Escherichia coli [36] = assay: Antibacterial activity against Escherichia coli KB366 expressing IMP-1 assessed as inhibition of bacterial growth at 1 ug in presence of meropenem incubated overnight by paper disk method; assay type: functional; settings: read-out: IZ
# Pseudomonas aeruginosa [37] = assay: Antibacterial activity against Pseudomonas aeruginosa KB367 expressing IMP-1 assessed as inhibition of bacterial growth at 0.03 ug in absence of meropenem incubated overnight by paper disk method; assay type: functional, organism-based; settings: dose 0.03 µg
smiles,measurement,setting,value
CCCCC(C(=O)N1CCCCC1)=C(C(=O)O)c1ccc(O)c(O)c1,zone of inhibition at 0.3 µg/disc,Escherichia coli [1],15 mm
same,zone of inhibition at 10 µg/disc,Pseudomonas aeruginosa [2],12 mm
same,zone of inhibition at 30 µg/disc,Escherichia coli [3],23 mm
same,inhibition zone (IZ),Escherichia coli [4],inactive
same,inhibition zone (IZ),Escherichia coli [5],inactive
same,zone of inhibition at 100 µg/disc,Pseudomonas aeruginosa [6],16 mm
same,IC50,[7],0.55 µg/mL
same,inhibition zone (IZ),Pseudomonas aeruginosa [8],inactive
same,zone of inhibition at 30 µg/disc,Pseudomonas aeruginosa [9],13 mm
same,inhibition zone (IZ),Pseudomonas aeruginosa [10],inactive
same,zone of inhibition at 1 µg/disc,Pseudomonas aeruginosa [11],9 mm
same,inhibition zone (IZ),Pseudomonas aeruginosa [12],inactive
same,inhibition zone (IZ),Pseudomonas aeruginosa [13],inactive
same,zone of inhibition at 100 µg/disc,Escherichia coli [14],24 mm
same,zone of inhibition at 3 µg/disc,Pseudomonas aeruginosa [15],12 mm
same,inhibition zone (IZ),Pseudomonas aeruginosa [16],inactive
same,inhibition zone (IZ),Pseudomonas aeruginosa [17],inactive
same,inhibition zone (IZ),Escherichia coli [18],inactive
same,inhibition zone (IZ),Pseudomonas aeruginosa [19],inactive
same,inhibition zone (IZ),Pseudomonas aeruginosa [20],inactive
same,inhibition zone (IZ),Pseudomonas aeruginosa [21],inactive
same,inhibition zone (IZ),Escherichia coli [22],inactive
same,zone of inhibition at 3 µg/disc,Escherichia coli [23],20 mm
same,inhibition zone (IZ),Pseudomonas aeruginosa [24],inactive
same,inhibition zone (IZ),Pseudomonas aeruginosa [25],inactive
same,inhibition zone (IZ),Escherichia coli [26],inactive
same,inhibition zone (IZ),Escherichia coli [27],inactive
same,inhibition zone (IZ),Escherichia coli [28],inactive
same,zone of inhibition at 0.03 µg/disc,Escherichia coli [29],10 mm
same,inhibition zone (IZ),Escherichia coli [30],inactive
same,zone of inhibition at 10 µg/disc,Escherichia coli [31],21 mm
same,inhibition zone (IZ),Escherichia coli [32],inactive
same,zone of inhibition at 0.1 µg/disc,Escherichia coli [33],12 mm
same,inhibition zone (IZ),Escherichia coli [34],inactive
same,inhibition zone (IZ),Pseudomonas aeruginosa [35],inactive
same,zone of inhibition at 1 µg/disc,Escherichia coli [36],17 mm
same,inhibition zone (IZ),Pseudomonas aeruginosa [37],inactive
